Reference: patent US20160022872A1, “CELL-BASED COMPOSITIONS, CELL-BASED BANDAGE DEVICES AND SYSTEMS AND METHODS OF TREATMENT THEREWITH” (UNIVERSITY OF PITTSBURGH-OF THE COMMONWEALTH SYSTEM OF …, priority 2013, published 2016)
Entries after “also recorded” stand apart in the source; their conditions may differ. Where two headings read alike, the source gives them in different places.

Columns and labels:
EGFR = assay: immunofluorescence for phospho-EGFR and EEA1; assay type: cell-based, human
Protocol: Upon determining that TNC provided a survival effect on MSC in the presence of FasL, and that this mapped to the EGFL, we studied if Tenascin C was able to activate EGFR on the surface of MSC and if this activation was sustained. MSCs have low levels of EGFR, which may limit activation by the ultra-low affinity EGFL. In a number of studies, immortalized hMSC were plated on surfaces with Collagen I alone or Collagen I and TNC for 24 hours. After 24 hours, (considered 0 minute), immunofluorescence for phospho-EGFR (red fluorescence) and the early endosome marker EEA1 (green fluorescence) was done on these samples. […] Immortalized hMSC seeded on Collagen I were treated with EGF, the prototypal EGFR ligand, known to cause EGFR internalization for 15, 30 and 60 minutes prior to fixation, to induce phosphorylation of EGFR. At the same time points, immunofluorescence was done on cells grown on Collagen I and TNC.

imhMSC and prhMSC [1] = conditions: for toxic effect on MSC (caspase3 activation without FasL): MSC on Collagen I and TNC, no FasL; for effect on survival advantage of TNC and Collagen I in the presence of FasL: prhMSC on Collagen I and TNC, inhibitor 30 minutes prior to and during 8 hours FasL; for cell death / caspase3 activation (FLICA): FasL or CHX and FasL, 8 hours (imhMSC) or 12 hours (prhMSC)
Protocol: MSCs are most susceptible to cell death via the Fas death pathway. […] Cells were also treated with a low concentration of the protein synthesis inhibitor cycloheximide (CHX) in addition to FasL. Cycloheximide, being a protein synthesis inhibitor, increases cell stress, imitating the starvation stress seen in vivo in a wound setting.
After preparation of coated surfaces and prior to seeding of MSC, neutralizing antibodies to the EGFL and FNL domains were added for 24 hours Immortalized hMSC were then seeded for 24 hours, kept treated or untreated with FasL for 8 hours, followed by a FLICA assay to test for caspase3 activation.
We next studied whether TNC contributes to survival of MSCs by sequestering FasL and prevention of FasL from binding its receptor Fas on MSC. We grew MSCs inside two cloning cylinders placed in wells of a 6-well dish, enclosing areas without any ECM, or with Collagen I and TNC, on which imhMSC were grown. One well had Collagen I and TNC coating surrounding the cloning cylinders, covered with media and FasL. The second well had only media with FasL surrounding the cloning cylinders, with no TNC.
The inhibitors were present during the entire 8 hours of FasL treatment, after which a FLICA assay was performed.

Erk = assay: immunofluorescence for phospho-Erk; assay type: cell-based, human; conditions: imhMSC, 0, 30 and 60 minutes
Protocol: We examined that of Erk Immortalized hMSC were plated on surfaces with Collagen I alone or Collagen I and TNC for 24 hours. After 24 hours, (considered 0 minute), immunofluorescence for phospho-Erk (green fluorescence) was tested either with or without the EGFR inhibitor PD153035.

MSC [2] = assay: MSC differentiation on coated surfaces (Von Kossa staining, adipocyte formation); assay type: cell-based, human
Description: We then studied whether TNC by itself, in the absence of specific differentiation cues, promotes MSC differentiation. We examined osteoblast or adipose cell formation from MSC grown on TNC and Collagen (Col I), in the presence of either proliferation or differentiation media. […] The matrix mix of TNC and Collagen I also did it interfere with differentiation.

imhMSC and prhMSC [3] = assay: MSC proliferation on extracellular matrix coatings; assay type: cell-based, human; conditions: 96 hours post-seeding
Description: During wound healing, endogenous MSC proliferation and differentiation are temporally distinct events. […] We tested if the extracellular matrix or ECM factors had any influence on MSC proliferation.

MSC [4] = assay: flow cytometric quantification of FITC/HLA+ cells, MSC survival in wound bed; assay type: in vivo, mouse; conditions: days 3, 7 and 21; WT and KO mice
Description: Male and Female FVB (Friend Virus B-Type) and C57BL/6 mice, between 7-9 weeks of age, were used in a number of studies. After shaving the hair on the back of the mice, 8 mm punch biopsies were created. Wounds were either left untreated or treated with commercially available NEW-SKIN® (a liquid bandage or wound protective barrier available from J&J of New Brunswick, N.J.), PEG-Polymer, PEG-Polymer+TNC, or PEG-Polymer+TNC−MSC. […]
Flow cytometric quantification of FITC/HLA+cells was used to detect MSC survival in the wound bed. […]
After shaving the hair on the back of the mice 8 mm punch biopsies were created. […] Animals were euthanized by CO2 inhalation and the wounds assessed. […] Each wound was measured and then removed from the animal, with unwounded skin taken from the contralateral dorsum as a control.
Flow Cytometry. Twelve-millimeter punch biopsies of the wound and 12-mm punch biopsies of unwounded regions were isolated for quantification of MSC engraftment in wounded skin at days 3, 7, 14, and 21. […] Flow cytometry was performed on an LSR II Cytometer (a flow cytometer system available from BD Biosciences of Franklin Lakes, N.J.) and subsequently analyzed using FOWJO® digital FACS software (available from Tree Star, Inc. of Ashland, Oreg.).

MSC [5] = assay: inverted centrifugation assay of MSC adhesiveness on coated surfaces; assay type: cell-based, human; conditions: 2 hours post-seeding
Protocol: Tenascin-C or TNC may reduce the number of focal adhesions and decrease cell adhesiveness in several cell types. To test for MSC adhesiveness on TNC, an inverted centrifugation assay was performed 2 hours post-seeding MSC on […] and the number of cells attached after centrifugation was compared to number of cells attached on a similarly coated surface that had not undergone centrifugation. […] To increase adhesiveness of cells on TNC we coated mixed Collagen I, a matrix naturally occurring in the in vivo bone environment and one that promotes MSC attachment and spreading, in a 1:1 ratio with TNC for coating substrates. […] In a number of studies hereof, a combination of Collagen I and TNC was used to increase TNC adherence to cells.

EGF: the prototypal EGFR ligand, known to cause EGFR internalization
phospho-EGFR staining over time (EGFR; imhMSC, 15, 30 and 60 minutes): stained positive for phospho-EGFR after 15 minutes of treatment; also recorded: very little phospho-EGFR signal

COc1cc2ncnc(Nc3cccc(Br)c3)c2cc1OC [PD153035, reference compound]
toxic effect on MSC (caspase3 activation without FasL) (imhMSC and prhMSC [1]): did not have a toxic effect on cells | effect on survival advantage of TNC and Collagen I in the presence of FasL (imhMSC and prhMSC [1]): blocked the survival advantage | phospho-Erk activation (Erk): reduced but not completely inhibited

COc1cccc(-c2cc(=O)c3ccccc3o2)c1N [PD98059, reference compound]
toxic effect on MSC (caspase3 activation without FasL) (imhMSC and prhMSC [1]): did not have a toxic effect on cells | effect on survival advantage of TNC and Collagen I in the presence of FasL (imhMSC and prhMSC [1]): blocked the survival advantage

O=c1cc(N2CCOCC2)oc2c(-c3ccccc3)cccc12 [LY294002, reference compound]
toxic effect on MSC (caspase3 activation without FasL) (imhMSC and prhMSC [1]): did not have a toxic effect on cells

Collagen I: a matrix naturally occurring in the in vivo bone environment that promotes MSC attachment and spreading
hydroxyapatite deposition (Von Kossa staining) (MSC [2]; 30 days in proliferation media): neither Collagen I by itself nor TNC and Collagen I caused hydroxyapatite deposition | cell death / caspase3 activation (FLICA) (imhMSC and prhMSC [1]): did not show protection | cell death / caspase3 activation (FLICA) (imhMSC and prhMSC [1]; listed as Collagen I alone): showed caspase 3 activation | MSC proliferation relative to cell numbers initially plated (imhMSC and prhMSC [3]): promote both imhMSC and prhMSC proliferation | phospho-EGFR staining (EGFR; imhMSC, 24 hours after plating (0 minute)): did not show phospho-EGFR staining | phospho-Erk activation (Erk): significantly less than that with TNC

TNC: the matrikine tenascin C, containing EGF-like and fibronectin like repeats
adipocyte formation (MSC [2]; in the presence of adipogenic inducers): did not prevent adipocyte formation | osteogenic differentiation (MSC [2]; in the presence of differentiation media): did not interfere with osteogenic differentiation | adipocyte formation (MSC [2]; on its own, no inducers): did not promote adipocyte formation on its own | cell death / caspase3 activation (FLICA) (imhMSC and prhMSC [1]): did not show caspase3 activation | sequestering or neutralizing of FasL (imhMSC and prhMSC [1]; cloning cylinder experiment, imhMSC): neither sequestering nor neutralizing FasL | optimal TNC coating to promote MSC survival in the presence of FasL (imhMSC and prhMSC [1]; dose response, TUNEL and FLICA staining): 1 Lg/cm2 | MSC survival in wound bed over time (MSC [4]): survive more and longer | MSC adhesiveness (MSC [5]): detach from surfaces after inverted centrifugation; also recorded: only half as adhesive as cells on Collagen I | phospho-Erk activation (Erk): activate phosho-Erk in MSC at 0, 30 and 60 minutes
